# Where “and” joins values, the source holds several entries; their conditions need not be identical. Equal values may be shown once. Where a name gives a salt, the structure may show the parent alone. Read-outs that look alike come from different tables or passages of the source.
# How the values were obtained:
# [1] = system: 3D EpiIntestinal™ tissue; experiment: Reconstructed intestine micronucleus cytome (RICyt) assay
# Description: EpiIntestinal™ tissue (SMI-200-FT v2.0) was purchased from MatTek Corporation® (Ashland, MA). The EpiIntestinal™ construct is a differentiated 3D tissue model that consists of intestinal villi and crypts topology resembling the normal human small intestine. […] The mature tissues are shipped sealed in 24-well agar-plugged plates to the designated laboratory (in this instance, Singapore). Upon receipt, the tissues are revived overnight in fresh SMI-100-MM before use in assays.
# (§1) Test compound stock solutions were prepared in DMSO (D161802, Sigma Aldrich, St Louis, MO). For the 3D tissues, dilutions were made in complete culture media yielding ≤ 0.1% DMSO final concentration. Media containing 0.1% DMSO (i.e. without test article) were applied to tissues to serve as the vehicle control. All 3D tissues were treated apically every alternate day (from day 0–6) and daily (from day 7–9), while basolateral wells contain untreated culture media to support the tissue growth. TK6 cells were exposed for 24 h with the test materials prior to harvest.
# (§2) 3D tissues were dissociated using human tumour dissociation kit (Miltenyl Biotec, Bergisch Gladbach, Germany), as per manufacturers’ instruction, with minor modifications. Individual 3D tissues cultured on microporous membranes were excised from the culture inserts and incubated for 15 min in cell recovery solution (Corning, Tewksbury, MA). The tissues were subsequently peeled off from the membrane with fine point forceps under stereo microscope (Leica Microsystems, Wetzlar, Germany). The peeled tissues were placed into gentleMACS C-tube (Miltenyi Biotech, Bergisch Gladbach, Germany) containing the enzyme mix described in the kit’s protocol. The tubes were then transferred into a gentleMACS octo dissociator with heater (Miltenyi Biotech, Bergisch Gladbach, Germany), and subjected to one cycle of ‘37C_m_LPDK_1’ program. Upon completion, the cell suspension was centrifuged at 1000 rpm for 5 min; the supernatant was removed and the pellet was resuspended in 2 mL of Hanks Balanced Salts Solution (HBSS). […] The proliferation of the 3D tissue was estimated through calculation of population doubling based on the dissociated cell number at the day 1, 6 and 11 after tissue revival. The cells were then (1) fixed for micronuclei scoring or (2) processed for subsequent experimentation.
# Tissues were exposed to test substances, harvested and dissociated into single cell suspension as described above. Cell suspension samples were divided equally; half of the cell suspension sample was fixed in Carnoy’s solution with 3 fixation steps in methanol/acetic acid […], supplemented with formaldehyde at 1st fixation. The cell suspension was aged at least overnight at 4 °C to improve the quality of fixed cells. The remaining cells were incubated with 4% formaldehyde for 15 min, rinsed twice with 1 × PBS and stored in 4 °C. […] One thousand total cells were scored per microtissue to determine the frequency of MN and cytome. The percentage of MN and cytome at each concentration of test chemical was compared with the solvent control. The results were generated from three independent experiments. Each experiment consisted of a single microtissue per dose.
# [2] = system: 3D EpiIntestinal™ tissue; conditions: human, 10 days
# Experimental: as §1
# as §2, with “revival.” for “revival. The cells were then (1) fixed for micronuclei scoring or (2) processed for subsequent experimentation.”
# [3] = system: TK6 cells; conditions: 24 h-exposure, dose not printed (Fig. 6b)
# [4] = system: TK6 cells; conditions: 24 h, comparable across all concentrations tested; DMSO control 0.7%
# [5] = system: 3D EpiIntestinal™ tissue; experiment: Cytokinesis-blocked micronucleus analysis (CBMN) in EpiIntestinal™ tissue; assay type: cell-based, human; conditions: 6 μg/ml, apical and basolateral, 10 days
# Experimental: The CBMN assay was conducted according to a previously published procedure (Fenech and Morley [1985b]). Briefly, cytochalasin B (5474, Tocris Bioscience, Bristol, UK, 6 μg/ml) was applied to the 3D EpiIntestinal™ in vitro tissues every other day, to the apical and to the basolateral compartments. […] The cell suspension was stored in fixative at 4 °C overnight, stained with acridine orange (1:100 dilution in 1 × PBS, A1301, Invitrogen; Thermo Fisher Scientific, Waltham, MA) and scored under fluorescence microscopy (Zeiss Axioimager, equipped with triple band excitation fluorescence filter set: DAPI, FITC and Texas red). Scoring was performed following the criteria developed by Fenech et al. (Fenech et al. [2003], [2007]). One thousand total cells per microtissue were scored to determine the percentage of cells with one (mononucleated) or two nuclei (binucleated). The results were generated from three independent experiments. Each experiment consisted of a single microtissue per dose.
# [6] = 50 ng/ml, apical, 10 days, Carnoy's fixative, mean ± SE
# [7] = 250 ng/ml, apical, 10 days, Carnoy's fixative, mean ± SE
# [8] = 500 ng/ml, apical, 10 days, Carnoy's fixative, mean ± SE
smiles,measurement,setting,value
c1ccc2c(c1)cc1ccc3cccc4ccc2c1c34 [benzo(a)pyrene],"BN, binucleated cells","[1]; human, 10 days, 6.25 μg/ml",1.30 ± 0.12%
same,"CC, condensed chromatin","[1]; human, 10 days, 6.25 μg/ml",0.13 ± 0.03%
same,"KL, karyolysis","[1]; human, 10 days, 6.25 μg/ml",0.60 ± 0.25%
same,"KR, karyorrhexis","[1]; human, 10 days, 6.25 μg/ml",5.59 ± 0.41 %
same,"Mono, mononucleated cells (basal and differentiated)","[1]; human, 10 days, 6.25 μg/ml",89.96 ± 0.56%
same,"PY, pyknosis","[1]; human, 10 days, 6.25 μg/ml",0.23 ± 0.03%
same,"BN, binucleated cells","[1]; human, 10 days, 12.5 μg/ml",1.80 ± 0.38%
same,"CC, condensed chromatin","[1]; human, 10 days, 12.5 μg/ml",0.37 ± 0.22%
same,"KL, karyolysis","[1]; human, 10 days, 12.5 μg/ml",0.63 ± 0.23%
same,"KR, karyorrhexis","[1]; human, 10 days, 12.5 μg/ml",7.27 ± 1.07%
same,"Mono, mononucleated cells (basal and differentiated)","[1]; human, 10 days, 12.5 μg/ml",85.87 ± 1.30%
same,"PY, pyknosis","[1]; human, 10 days, 12.5 μg/ml",0.40 ± 0.21%
same,"BN, binucleated cells","[1]; human, 10 days, 25 μg/ml",0.99 ± 0.29%
same,"CC, condensed chromatin","[1]; human, 10 days, 25 μg/ml",0.20 ± 0.10%
same,"KL, karyolysis","[1]; human, 10 days, 25 μg/ml",0.40 ± 0.20%
same,"KR, karyorrhexis","[1]; human, 10 days, 25 μg/ml",6.24 ± 0.06 %
same,"Mono, mononucleated cells (basal and differentiated)","[1]; human, 10 days, 25 μg/ml",88.11 ± 1.01%
same,"PY, pyknosis","[1]; human, 10 days, 25 μg/ml",0.56 ± 0.33%
same,doses with significant decreases in cell population,[2],≥ 6.25 µg/mL
CC[C@]1(O)C[C@@H]2CN(CCc3c([nH]c4ccccc34)[C@@](C(=O)OC)(c3cc4c(cc3OC)N(C)[C@H]3[C@@](O)(C(=O)OC)[C@H](OC(C)=O)[C@]5(CC)C=CCN6CC[C@]43[C@@H]65)C2)C1 [vinblastine sulphate],"BN, binucleated cells",[1]; [6],0.77 ± 0.12%
same,"Buds, nuclear buds",[1]; [6],0.63 ± 0.29%
same,"CC, condensed chromatin",[1]; [6],0.07 ± 0.03%
same,"KL, karyolysis",[1]; [6],1.23 ± 0.74%
same,"KR, karyorrhexis",[1]; [6],4.90 ± 0.63%
same,"MN, micronuclei",[1]; [6],2.71 ± 0.44%
same,"Mono, mononucleated cells (basal and differentiated)",[1]; [6],89.09 ± 1.25%
same,"PY, pyknosis",[1]; [6],0.6 ± 0.12%
same,"BN, binucleated cells",[1]; [7],0.86 ± 0.38%
same,"Buds, nuclear buds",[1]; [7],0.53 ± 0.28%
same,"CC, condensed chromatin",[1]; [7],0.15 ± 0.13%
same,"KL, karyolysis",[1]; [7],1.82 ± 1.01%
same,"KR, karyorrhexis",[1]; [7],4.75 ± 1.30%
same,"MN, micronuclei",[1]; [7],3.11 ± 0.36 %
same,"Mono, mononucleated cells (basal and differentiated)",[1]; [7],87.14 ± 2.07%
same,"PY, pyknosis",[1]; [7],1.66 ± 0.49%
same,"BN, binucleated cells",[1]; [8],0.94 ± 0.49%
same,"Buds, nuclear buds",[1]; [8],0.50 ± 0.16%
same,"CC, condensed chromatin",[1]; [8],0.17 ± 0.02 %
same,"KL, karyolysis",[1]; [8],1.79 ± 1.05%
same,"KR, karyorrhexis",[1]; [8],6.48 ± 2.52%
same,"MN, micronuclei",[1]; [8],3.46 ± 0.16 %
same,"Mono, mononucleated cells (basal and differentiated)",[1]; [8],84.89 ± 3.06%
same,"PY, pyknosis",[1]; [8],1.77 ± 0.77%
same,frequency of pyknotic and karyolytic cells,"[1]; apical, 10 days",increased
same,doses with significant decreases in cell population,[2],0.5 µg/mL
CO[C@@]12[C@H](COC(N)=O)C3=C(C(=O)C(C)=C(N)C3=O)N1C[C@@H]1N[C@@H]12 [mitomycin C],population decline,[3],55%
"[H]/N=C(/N)N/C(=N/[H])NCCc1ccccc1 [phenformin HCl, Phenformin HCl]",RICyt assay outcome,[1],inactive
same,prevalence of MN,"[1]; 10 days' exposure, DMSO control […]",~ 1%
same,prevalence of MN in TK6 cells,[4],~ 0.6%
same,loss of viable cell populations,[2]; 62.5 µg/ml,40%
same,loss of viable cell populations,[2]; 125 µg/ml,45%
same,loss of viable cell populations,[2]; 250 µg/ml,60%
"C=C1[C@@H](C)[C@H]2[C@H](Cc3ccccc3)NC(=O)[C@]23OC(=O)/C=C/[C@H](O)CCC[C@@H](C)C/C=C/[C@H]3[C@@H]1O [Cyt-B, cytochalasin B]",cells containing BN (binucleated),[5],8.1% and ~ 8.1%
same,mononuclear cells,[5],91.9%

# Source: publication PMC9013689, “Development of reconstructed intestinal micronucleus cytome (RICyt) assay in 3D human gut model for genotoxicity assessment of orally ingested substances” (Archives of Toxicology, 2022)
